Values quoted from earlier work in patent US20240274231A1, “Method, System and Computer Program Product for Determining Peptide Immunogenicity” (MyNeo NV, priority 2020, published 2024).
Read-outs that look alike come from different tables or passages of the source.

Test system: CD8+ T cell responses
Conditions: stimulated IFN gamma ELISpot, peptide specific CD8+ T-cell responses among eleven evaluable breast cancer patients, vaccine plus poly-ICLC

## SLFRAVITK [MAGGE-A196-104, HLA-A3 MAGE-A196-104 vaccine peptide]
  ELISpot: 1 borderline
Listed as MAGE-A196-104
  ELISpot: borderline response
